For orientation: pIC50 means −log10 of the IC50, conventionally taken in molar units.

pIC50: −log10 of the molar value.

The target in test [1] is T1, human TRPA1 (Homo sapiens (Human), UniProt O75762). Briefly: Measurement of TRPA1 antagonist activity (1): intracellular calcium increase. Type of test: cell-based. Particulars: 293T cells transfected with human TRPA1 expression plasmid; allylisothiocyanate 20 μM stimulation; intracellular calcium fluorescence; read-out: hTRPA1 IC50. The method in brief: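 HEK293T cells transiently transfected with full-length human TRPA1, loaded with Calcium4 dye in HBSS/20 mM HEPES pH 7.2. Test compound preincubated 10 min, then allylisothiocyanate added at 20 μM final and fluorescence change followed for 5 min. IC50 from sigmoid fit of percent inhibition relative to agonist and buffer controls.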
T1 sequence (O75762 whole entry): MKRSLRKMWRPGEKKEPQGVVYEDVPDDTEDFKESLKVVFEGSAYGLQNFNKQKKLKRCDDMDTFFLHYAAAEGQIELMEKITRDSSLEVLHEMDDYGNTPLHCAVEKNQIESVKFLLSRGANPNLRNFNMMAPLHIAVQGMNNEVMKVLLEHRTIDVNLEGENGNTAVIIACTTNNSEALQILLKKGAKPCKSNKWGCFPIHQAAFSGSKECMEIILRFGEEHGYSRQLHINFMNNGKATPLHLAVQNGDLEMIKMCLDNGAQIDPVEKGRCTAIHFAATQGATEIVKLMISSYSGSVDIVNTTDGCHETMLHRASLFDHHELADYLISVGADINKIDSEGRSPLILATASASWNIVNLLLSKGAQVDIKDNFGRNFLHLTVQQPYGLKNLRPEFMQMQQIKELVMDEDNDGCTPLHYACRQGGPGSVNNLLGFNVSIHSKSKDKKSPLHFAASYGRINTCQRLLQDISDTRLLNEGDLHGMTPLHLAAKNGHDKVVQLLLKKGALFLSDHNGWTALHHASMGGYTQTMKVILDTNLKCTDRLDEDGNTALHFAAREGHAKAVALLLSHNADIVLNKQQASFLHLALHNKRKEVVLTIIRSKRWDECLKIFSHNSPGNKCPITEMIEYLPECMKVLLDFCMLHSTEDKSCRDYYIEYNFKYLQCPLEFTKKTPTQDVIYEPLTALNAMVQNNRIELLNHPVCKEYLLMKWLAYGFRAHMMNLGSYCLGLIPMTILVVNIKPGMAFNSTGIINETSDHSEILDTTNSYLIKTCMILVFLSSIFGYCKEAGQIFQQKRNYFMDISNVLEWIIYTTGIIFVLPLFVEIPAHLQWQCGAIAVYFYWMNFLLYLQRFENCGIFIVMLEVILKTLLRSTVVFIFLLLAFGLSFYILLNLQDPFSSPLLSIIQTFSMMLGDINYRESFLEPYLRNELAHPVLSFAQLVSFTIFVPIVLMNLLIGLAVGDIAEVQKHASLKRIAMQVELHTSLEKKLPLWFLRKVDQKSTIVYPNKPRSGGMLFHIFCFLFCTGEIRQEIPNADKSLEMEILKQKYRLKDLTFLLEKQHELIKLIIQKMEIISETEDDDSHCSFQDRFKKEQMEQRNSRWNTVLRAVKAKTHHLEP
(In general: Calcium assays in cells follow changes in intracellular calcium, usually with a dye or a luminescent sensor.)

The target of test [2] is T1, human TRPA1. In words: Measurement of TRPA1 antagonist activity (2): as (1), different lot of human TRPA1 expression plasmid. Type of test: cell-based. Particulars: 293T cells transfected with human TRPA1, allylisothiocyanate 20 μM stimulation, calcium fluorescence, read-out: hTRPA1 IC50. The method in brief:
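HEK293T cells transiently transfected with human TRPA1 plasmid (different lot), loaded with Calcium4 dye in HBSS/20 mM HEPES pH 7.2. Test compound preincubated 10 min, then allylisothiocyanate added at 20 μM final and fluorescence change read for 5 min. IC50 from sigmoid fit of inhibition relative to AITC-alone and buffer controls.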

`O=C(NCc1cncc(-c2ccc(C(F)(F)F)cn2)c1)[C@@H]1CCCN1S(=O)(=O)c1cc2ccccc2o1` [Example 87, (2S)-1-(benzofuran-2-ylsulfonyl)-N-[[5-[5-(trifluoromethyl)-2-pyridyl]-3-pyridyl]methyl]pyrrolidine-2-carboxamide]: the results for the pIC50 at human TRPA1 [1] and at human TRPA1 [2] were 7.59 and 7.28, respectively.
For `O=C(NCc1cc(-c2ccc(C(F)(F)F)cn2)ccn1)[C@@H]1CCCN1S(=O)(=O)c1cc2ccccc2o1` [Example 179, (2S)-1-(benzofuran-2-ylsulfonyl)-N-[[4-[5-(trifluoromethyl)-2-pyridyl]-2-pyridyl]methyl]pyrrolidine-2-carboxamide], the pIC50 on human TRPA1 [1] is 8.89; at human TRPA1 [2], 8.39.
Take `C[C@H](NS(=O)(=O)c1cc2cc(F)ccc2o1)C(=O)NCc1cc(-c2ccc(C(F)(F)F)nc2)ncn1` [Example 191, (2S)-2-[(5-fluorobenzofuran-2-yl)sulfonylamino]-N-[[6-[6-(trifluoromethyl)-3-pyridyl]pyrimidin-4-yl]methyl]propanamide]: the negative-log IC50 (pIC50) was 7.92 at human TRPA1 [1] and 7.46 at human TRPA1 [2].

Source of the values: patent publication US10626112B2, “Heterocyclic sulfonamide derivative and medicine comprising same” (EA PHARMA CO., LTD., priority 2014, dated 2020).
